Results on 2 molecules are retold here after patent US20040053355A1, “Modular approach to on-line synthesis, drug discovery and biochemical transformations using immobilized enzyme reactors” (priority 2000, published 2004).

The term IC50 denotes the point on the concentration scale where inhibition reaches its midpoint. One may read the Km as the substrate concentration at which the rate is half of its maximum. The Vmax is the top rate of the reaction or transport when substrate is in excess.

The target of data set [1] is T1, dopamine beta-hydroxylase (Homo sapiens, UniProt P09172).
T1 sequence (P09172 1-617): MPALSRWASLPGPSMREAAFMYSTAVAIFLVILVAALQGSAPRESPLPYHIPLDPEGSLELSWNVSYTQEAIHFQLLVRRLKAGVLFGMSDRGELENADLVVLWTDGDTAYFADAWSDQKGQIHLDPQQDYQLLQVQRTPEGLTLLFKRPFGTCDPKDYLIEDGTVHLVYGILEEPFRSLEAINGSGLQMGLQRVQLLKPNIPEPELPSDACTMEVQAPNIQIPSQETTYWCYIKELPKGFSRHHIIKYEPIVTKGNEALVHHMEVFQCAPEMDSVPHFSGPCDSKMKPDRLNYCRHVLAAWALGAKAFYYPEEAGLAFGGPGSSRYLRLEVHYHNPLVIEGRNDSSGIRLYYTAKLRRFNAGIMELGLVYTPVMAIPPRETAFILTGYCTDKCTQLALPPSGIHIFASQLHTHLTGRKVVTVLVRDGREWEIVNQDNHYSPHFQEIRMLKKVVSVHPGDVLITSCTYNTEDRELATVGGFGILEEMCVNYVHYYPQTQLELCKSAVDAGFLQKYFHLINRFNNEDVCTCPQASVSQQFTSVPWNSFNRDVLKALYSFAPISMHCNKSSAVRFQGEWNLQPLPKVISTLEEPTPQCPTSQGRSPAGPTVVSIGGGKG
To be noted: 140 μM captopril; Cu2+ as CuSO4; Palatini et al., 1989; cited from earlier work.

The target of data set [2] is T2, DBH-Glut-P IMER (immobilized dopamine beta-hydroxylase) (Bos taurus, UniProt P15101).
T2 construct: purchased
T2 sequence (P15101 1-610): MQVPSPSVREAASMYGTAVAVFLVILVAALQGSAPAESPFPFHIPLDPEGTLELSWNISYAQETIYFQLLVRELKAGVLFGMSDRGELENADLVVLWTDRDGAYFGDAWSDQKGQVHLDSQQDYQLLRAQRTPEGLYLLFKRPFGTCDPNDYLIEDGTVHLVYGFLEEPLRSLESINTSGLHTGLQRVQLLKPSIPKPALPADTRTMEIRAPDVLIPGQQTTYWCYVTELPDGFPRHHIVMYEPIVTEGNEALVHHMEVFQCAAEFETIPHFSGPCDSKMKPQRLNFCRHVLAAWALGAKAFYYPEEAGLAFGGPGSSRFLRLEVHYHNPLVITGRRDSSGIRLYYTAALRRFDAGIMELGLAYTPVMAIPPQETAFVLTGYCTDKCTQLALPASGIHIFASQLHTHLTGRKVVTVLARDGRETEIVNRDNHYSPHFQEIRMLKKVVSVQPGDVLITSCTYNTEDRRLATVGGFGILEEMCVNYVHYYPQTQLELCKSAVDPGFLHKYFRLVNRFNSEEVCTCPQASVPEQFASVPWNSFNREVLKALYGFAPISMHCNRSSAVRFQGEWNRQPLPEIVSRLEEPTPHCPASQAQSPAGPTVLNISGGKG
In words: On-line DBH-Glut-P immobilized enzyme reactor (DBH-Glut-P IMER) HPLC system. The data set is classed as biochemical, bovine. An excerpt: DBH immobilized on the IAM or Glut-P stationary phase was packed into a 1 cm×10 mm guard (Regis Technologies). The guard was placed in a holder and the resulting column connected to a chromatographic system. THE DBH-IAM-IMER and the DBH-Glut-P-IMER was washed with sodium acetate buffer [0.1M, pH 5.5] and sodium acetate buffer [0.1M, pH 6.0], respectively. The eluent from both IMERs was collected in order to determine if any of the DBH was being washed off the columns. The Biorad assay was utilized to measure the amount of non-immobilized enzyme. When the columns were not in use they were washed with sodium acetate buffer at the respective pHs and stored at 4° C.
Pumps 2 and 3 on system 2 and 3 were stopped. 100 μl of a substrate/cofactor mixture is loaded into the injector (i) and the valve is switched to the inject position at the same time the witching valve (SV) is switched such that substrate/product are eluted from the DBH-IMERs and concentrated onto the PBA column of system 2.The second pump was started and mobile phase A was pumped through the PBA column at a flow rate of 0.1 ml/min for 30 sec in order to elute, ascorbic acid and any other by-products produced from the reaction. The pump was then switched to mobile phase B with a flow rate of 0.1 ml/min for 2 min and simultaneously SV1 was switched such that unreacted substrate and product formed were concentrated on the analytical columns of System 3. When the specific contact time elapses the SV2 is switched back to the original position and the pump 3 is started.
The enzymatic activity on the DBH-Glut-P was determined by quantification of the amount of product formed with a given substrate. The temperature of the IMER unless otherwise stated was kept at 37° C. with a column heater. Stock solutions of tyramine were prepared in water. […] The kinetic parameters were determined using standard Michaelis-Menten approach. […] The rates of reaction (Vmax) were calculated using […]mol/mg/min. Results are expressed as mean±standard error of the mean (SEM). […]

The target in data set [3] is T3, dopamine beta-hydroxylase (DBH), non-immobilized (Bos taurus, UniProt P15101).
T3 construct: purchased
T3 sequence (P15101 1-610): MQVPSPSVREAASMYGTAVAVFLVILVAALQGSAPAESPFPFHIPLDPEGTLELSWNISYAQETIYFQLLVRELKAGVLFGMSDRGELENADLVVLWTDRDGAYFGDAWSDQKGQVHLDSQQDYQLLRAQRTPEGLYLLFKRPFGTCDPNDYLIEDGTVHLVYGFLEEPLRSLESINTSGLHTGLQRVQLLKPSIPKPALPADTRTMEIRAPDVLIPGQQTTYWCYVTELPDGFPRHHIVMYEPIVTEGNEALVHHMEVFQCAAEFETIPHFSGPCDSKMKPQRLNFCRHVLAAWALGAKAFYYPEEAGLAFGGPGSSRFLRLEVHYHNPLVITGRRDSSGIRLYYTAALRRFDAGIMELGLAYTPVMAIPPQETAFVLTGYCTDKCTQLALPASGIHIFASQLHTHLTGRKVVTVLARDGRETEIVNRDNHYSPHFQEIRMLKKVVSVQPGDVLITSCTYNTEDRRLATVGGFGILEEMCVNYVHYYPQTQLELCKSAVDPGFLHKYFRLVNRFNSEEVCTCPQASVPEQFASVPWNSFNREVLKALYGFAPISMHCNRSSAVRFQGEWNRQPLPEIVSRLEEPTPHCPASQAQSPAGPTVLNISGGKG
Nature of the data set: Non-immobilized DBH activity assay, batch incubation with HPLC-fluorescence analysis. Format: biochemical, bovine. How it is done: The solutes were quantitated using fluorescence detection with excitation at λ=265 nm and no cut-off filter for emission. A flow rate of 1 ml/min and ambient temperature were used throughout the study.
Enzymatic conversions utilizing DBH require cupric sulphate, catalase, ascorbic acid and sodium fumarate. An off-line extraction method utilizing solid phase extraction cartridges containing a phenylboronic acid stationary phase was developed. The procedure consisted of the following: 1-ml cartridges were conditioned with 2 ml of methanol followed by 2 ml of sodium phosphate buffer (0.1M, pH 8.4). One ml of reaction mixture was added, the cartridge was then washed with 1 ml sodium phosphate buffer (0.1M, pH 8.4) and the substrate and product were eluted using 1 ml of 0.1N HCl. The eluate was directly injected onto the HPLC system.
(§1) The enzyme was assayed as follows: four different solutions were prepared A, B, C and D (final concentration). (A) 500 μL of enzyme solution (10 μg/ml); B: 275 μL sodium acetate buffer (10 mM, pH 5.5), 50 μL cupric sulphate (5 μM); C: 25 μL catalase (5 μg/ml), 50 μL ascorbic acid (10 mM), 50 μl sodium fumarate (10 mM); D: 50 μl substrate (5 mM). Solution B was added to solution A, the resulting solution was mixed for 1 min. Solution C was added and the resulting solution was mixed for an additional minute. The reaction was started with the addition of the substrate (D), after which the reaction solution was incubated for 5 min at 37° C. in a shaking bath. The reaction was stopped by the addition of 100 μl of cold hexane, the resulting mixture was centrifuged at 3000×g for 10 min and the supernatant transferred to the pre-conditioned phenylboronic acid cartridges in order to extract the product formed and the remaining substrate. Extracted samples were directly injected onto the HPLC under either chiral or achiral conditions.

For data set [4], the target named is T4, immobilized DBH (dopamine β-hydroxylase) (Bos taurus, UniProt P15101).
T4 construct: purchased
T4 sequence (P15101 1-610): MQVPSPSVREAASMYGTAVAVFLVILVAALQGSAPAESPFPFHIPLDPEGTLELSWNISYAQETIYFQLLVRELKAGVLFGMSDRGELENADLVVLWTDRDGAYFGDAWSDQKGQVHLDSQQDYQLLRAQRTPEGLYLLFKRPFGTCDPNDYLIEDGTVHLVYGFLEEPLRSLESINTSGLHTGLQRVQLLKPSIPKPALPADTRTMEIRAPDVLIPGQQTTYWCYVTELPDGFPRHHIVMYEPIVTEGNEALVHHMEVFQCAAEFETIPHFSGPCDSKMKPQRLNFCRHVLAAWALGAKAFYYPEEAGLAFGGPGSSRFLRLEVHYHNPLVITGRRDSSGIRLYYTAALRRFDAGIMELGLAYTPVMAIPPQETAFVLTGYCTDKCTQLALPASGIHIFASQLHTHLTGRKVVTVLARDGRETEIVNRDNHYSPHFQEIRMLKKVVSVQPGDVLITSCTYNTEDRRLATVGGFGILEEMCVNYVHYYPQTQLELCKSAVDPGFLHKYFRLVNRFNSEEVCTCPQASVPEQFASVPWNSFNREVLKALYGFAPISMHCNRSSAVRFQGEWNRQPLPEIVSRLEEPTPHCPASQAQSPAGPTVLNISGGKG
In words: Captopril inhibition of immobilized DBH, batch assay (support not specified). The data set is classed as biochemical, bovine. How it is done:
as §1
The effect of captopril on immobilized DBH kinetics is represented in the form of a reciprocal velocity plot versus the reciprocal of the concentration of tyramine. […] The slope and intercept replots were linear (r>0.995).

Substrate in data set [5]: O=C1O[C@H]([C@@H](O)CO)C(O)=C1O
Nature of the data set: Non-immobilized DBH activity assay, batch incubation with HPLC-fluorescence analysis. Format: biochemical, bovine. Particulars: other: non-immobilized DBH; Lineweaver-Burke; 37.0 °C.

Substrate in data set [6]: NCCc1ccc(O)cc1
The description is as above. The data set is classed as biochemical, bovine. Particulars: other: non-immobilized DBH; Lineweaver-Burke; 37.0 °C.

Substrate in data set [7]: NCCc1ccc(O)c(O)c1
Nature of the data set: purified protein, by the assay type. Particulars: other: non-immobilized DBH; Lineweaver-Burke; 37.0 °C.

As for `C[C@H](CS)C(=O)N1CCC[C@H]1C(=O)O` [Captopril, captopril], the “Cu^2+ concentration giving reversal of the inhibition” value in data set [1] is 1.5 µM. In data set [2] (DBH-Glut-P IMER), the “concentration as low as which the IMER is inhibited” value came out at 50 µM. The IC50 worked out at 120 µM in data set [2] (on-line injection of substrate/cofactor/inhibitor mixtures, read-out: IC50 DBH-Glut-P IMER) and 150 µM in data set [3] (read-out: IC50 DBH (Non-immobilized)). Also, the “inhibition of DBH mediated formation of octopamine from tyramine” value in data set [3] (non-immobilized enzyme, concentrations as low as 150 μM) is “approximately 50%”; in data set [4] (immobilized enzyme, concentrations as low as 150 μM), “approximately 50%”. Moreover, the “cupric sulphate concentration achieving reversal of the inhibition” value in data set [4] (enzyme form not stated) was 2.5 µM. Also, the “type of inhibition with respect to tyramine (reciprocal velocity plot)” value in data set [4] (immobilized DBH, tyramine as varied substrate) is recorded as “noncompetitive inhibition”.

B1: dopamine beta-hydroxylase (DBH), non-immobilized (Bos taurus) (protein)
chain: MQVPSPSVREAASMYGTAVAVFLVILVAALQGSAPAESPFPFHIPLDPEGTLELSWNISYAQETIYFQLLVRELKAGVLFGMSDRGELENADLVVLWTDRDGAYFGDAWSDQKGQVHLDSQQDYQLLRAQRTPEGLYLLFKRPFGTCDPNDYLIEDGTVHLVYGFLEEPLRSLESINTSGLHTGLQRVQLLKPSIPKPALPADTRTMEIRAPDVLIPGQQTTYWCYVTELPDGFPRHHIVMYEPIVTEGNEALVHHMEVFQCAAEFETIPHFSGPCDSKMKPQRLNFCRHVLAAWALGAKAFYYPEEAGLAFGGPGSSRFLRLEVHYHNPLVITGRRDSSGIRLYYTAALRRFDAGIMELGLAYTPVMAIPPQETAFVLTGYCTDKCTQLALPASGIHIFASQLHTHLTGRKVVTVLARDGRETEIVNRDNHYSPHFQEIRMLKKVVSVQPGDVLITSCTYNTEDRRLATVGGFGILEEMCVNYVHYYPQTQLELCKSAVDPGFLHKYFRLVNRFNSEEVCTCPQASVPEQFASVPWNSFNREVLKALYGFAPISMHCNRSSAVRFQGEWNRQPLPEIVSRLEEPTPHCPASQAQSPAGPTVLNISGGKG
notes: purchased
B1: the Km in data set [5] is 620 µM; in data set [6], 2850 µM; in data set [7] it was 5030 µM. In data set [5], the Vmax was determined as 0.185 µmol/mg/min.
